pEC50, pIC50, pKi: −log10 of the molar value. Several values for one entry are separate records, joined by “and”; a condition that tells them apart may be missing. Equal entries are not always repeated. Where two headings read alike, the source gives them in different places. Peptide text beside a SMILES is read from it. * marks the point of attachment. Cbz = O=C(OCc1ccccc1)*
Tests used:
CatL [1] = molecular target: T1, CatL (Homo sapiens, UniProt P07711, T223A); test: NanoDSF, thermal stability of CatL; assay type: binding
T1 construct: made in house; host or cells: Komagataella pastoris strain GS115

bovine serum albumin = molecular target: T2, bovine serum albumin (Bos taurus, UniProt P02769); assay type: binding
T2 construct: purchased Merck, Germany

[2] = in DMSO; compound supply and quality parameters, supplier named in Table S4; cited from earlier work
[3] = Cell viability assay (CellTiter-Blue); details: chlorocebus sabaeus
[4] = test system: SARS-CoV-2-GFP in Vero E6 cells; test: microbe, parasite or virus in culture; assay type: cell-based
[5] = test system: SARS-CoV-2 wild-type SA-WA1/2020; design: method as in PMID 32541865; details: Vero cells, read-out: half-maximal effective concentration; cited from earlier work
CatL [6] = molecular target: T1, CatL; test: CatL inhibition assay (Ki), substrate Z-RR-AMC; assay type: biochemical; details: for pKi: CatL, Z-RR-AMC, pH 4.0, 37 °C
Outline: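 Buffer: 50 mM sodium acetate pH 4.0, 50 mM NaCl, 0.1% PEG 6000, 5 mM DTT; epoxide inhibitors separately in 50 mM sodium phosphate pH 6.0 with same additives.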

Vero cells = test system: Vero cells; design: method as in PMID 32541865; details: another assay using Vero cells; cited from earlier work
CatL [7] = details: Table S1, SI reference list; cited from earlier work
SARS-CoV-2 Mpro = SARS-CoV-2 Mpro (Severe acute respiratory syndrome coronavirus 2, UniProt P0DTD1); assay type: binding
Vero E6 cells = test: Cell viability assay (CellTiter-Blue); details: Vero E6 cells

T1 sequence (P07711 114-333 T223A): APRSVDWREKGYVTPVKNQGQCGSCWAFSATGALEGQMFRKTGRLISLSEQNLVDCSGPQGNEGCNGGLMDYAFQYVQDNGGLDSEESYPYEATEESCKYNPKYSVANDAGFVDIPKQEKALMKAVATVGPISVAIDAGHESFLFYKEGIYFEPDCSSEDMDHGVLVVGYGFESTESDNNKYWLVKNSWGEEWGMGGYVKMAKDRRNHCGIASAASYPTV
T2 sequence (P02769 25-607): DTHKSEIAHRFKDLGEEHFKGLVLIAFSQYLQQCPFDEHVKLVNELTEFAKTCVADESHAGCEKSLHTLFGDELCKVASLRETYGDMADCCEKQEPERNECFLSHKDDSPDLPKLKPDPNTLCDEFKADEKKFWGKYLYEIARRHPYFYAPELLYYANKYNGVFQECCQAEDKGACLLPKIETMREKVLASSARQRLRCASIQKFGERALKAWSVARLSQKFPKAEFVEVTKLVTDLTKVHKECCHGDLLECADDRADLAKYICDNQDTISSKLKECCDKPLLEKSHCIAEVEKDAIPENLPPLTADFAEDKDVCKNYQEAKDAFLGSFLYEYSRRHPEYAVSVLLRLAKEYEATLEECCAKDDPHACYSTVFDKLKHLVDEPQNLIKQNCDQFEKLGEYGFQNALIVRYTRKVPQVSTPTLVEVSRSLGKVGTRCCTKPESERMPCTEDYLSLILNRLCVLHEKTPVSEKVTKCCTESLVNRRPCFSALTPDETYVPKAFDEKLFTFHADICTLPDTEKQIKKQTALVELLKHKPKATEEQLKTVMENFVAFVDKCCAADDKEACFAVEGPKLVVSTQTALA

## CCCC(NC(=O)C(CC(C)C)NC(=O)OCc1ccccc1)C(=O)C(=O)NCc1ccccn1 (stereo not shown) [CI-XII, Benzyl N-[1-[[1.2-dioxo-1-(pyridin-2-ylmethylamino)hexan-3-yl]amino]-4-methyl-1-oxopentan-2-yl]carbamate]
CatL [1]
  2:1, Tm average (CatL): 81.6 °C
  20:1, Tm average (CatL): 81.3 °C
  ΔTm [K] for CatL, 2:1 ratio: 18.5 ± 0.4 K
CatL [1]; pH 5
  ΔTm (for CatL), 2:1 compound to protein mixing ratio: 18,5 ± 0,4 °C and 18.5 °C
  ΔTm (for CatL), 20:1 compound to protein mixing ratio: 18,2 ± 0,2 °C and 18.2 °C
Bovine serum albumin
  Tm of bovine serum albumin in the presence of compound: 333.4 ± 0.8 K
[2]
  Solvent (max. solubility): 16 mg/mL
[3]
  CC50 at 48 h: > 10000 nM
[4]; Severe acute respiratory syndrome coronavirus 2, Vero C1008, 24 h, read-out: EC50 (24 h)
  pEC50: 8.19
[4]; Severe acute respiratory syndrome coronavirus 2, Vero C1008, 24 h, read-out: EC50 (after 24 h)
  pEC50: 8.20
[4]; Severe acute respiratory syndrome coronavirus 2, Vero C1008, 48 h, read-out: EC50 (after 48 h)
  pEC50: 6.84
[4]; read-out: EC50 (24 h)
  pEC50: > 8.00
[5]
  pEC50: > 6.00
CatL [6]; CI-XII 0.055 uM
  Residual activity (Vi/V0): 0.9785 and 0.9376
CatL [6]; CI-XII 0.091 uM
  Residual activity (Vi/V0): 0.9548 and 0.9431
CatL [6]; CI-XII 0.152 uM
  Residual activity (Vi/V0): 0.9354 and 0.8807
CatL [6]; CI-XII 0.254 uM
  Residual activity (Vi/V0): 0.873 and 0.9321
CatL [6]; CI-XII 0.423 uM
  Residual activity (Vi/V0): 0.8656 and 0.8369
CatL [6]; CI-XII 0.705 uM
  Residual activity (Vi/V0): 0.7709 and 0.7656
CatL [6]; CI-XII 1.176 uM
  Residual activity (Vi/V0): 0.6641 and 0.6442
CatL [6]; CI-XII 1.960 uM
  Residual activity (Vi/V0): 0.5112 and 0.4696
CatL [6]; CI-XII 3.266 uM
  Residual activity (Vi/V0): 0.3345 and 0.322
CatL [6]; CI-XII 5.443 uM
  Residual activity (Vi/V0): 0.1956 and 0.1842
CatL [6]; CI-XII 9.072 uM
  Residual activity (Vi/V0): 0.1094 and 0.09936
CatL [6]; CI-XII 15.120 uM
  Residual activity (Vi/V0): 0.06322 and 0.05321
CatL [6]; CI-XII 25.200 uM
  Residual activity (Vi/V0): 0.03696 and 0.03366
CatL [6]; CI-XII 42.000 uM
  Residual activity (Vi/V0): 0.01939 and 0.02113
CatL [6]; CI-XII 70.000 uM
  Residual activity (Vi/V0): 0.01108 and 0.01542
CatL [6]; CatL Ki relative to 13b
  fold lower Ki than 13b: ~500 fold
CatL [6]; Ki
  pKi: 9.19
CatL [6]; read-out: Residual activity (Vi/V0), CI-XII 0.055 uM
  remaining activity at 0.055 µM: 101%
CatL [6]; read-out: Residual activity (Vi/V0), CI-XII 0.091 uM
  remaining activity at 0.091 µM: 100%
CatL [6]; read-out: Residual activity (Vi/V0), CI-XII 0.152 uM
  remaining activity at 0.152 µM: 102%
CatL [6]; read-out: Residual activity (Vi/V0), CI-XII 0.254 uM
  remaining activity at 0.254 µM: 94.7%
CatL [6]; read-out: Residual activity (Vi/V0), CI-XII 0.423 uM
  remaining activity at 0.423 µM: 84.5%
CatL [6]; read-out: Residual activity (Vi/V0), CI-XII 0.705 uM
  remaining activity at 0.705 µM: 75%
CatL [6]; read-out: Residual activity (Vi/V0), CI-XII 1.176 uM
  remaining activity at 1.176 µM: 65.7%
CatL [6]; read-out: Residual activity (Vi/V0), CI-XII 1.960 uM
  remaining activity at 1.96 µM: 52.2%
CatL [6]; read-out: Residual activity (Vi/V0), CI-XII 3.266 uM
  remaining activity at 3.266 µM: 34.9%
CatL [6]; read-out: Residual activity (Vi/V0), CI-XII 5.443 uM
  remaining activity at 5.443 µM: 17.4%
CatL [6]; read-out: Residual activity (Vi/V0), CI-XII 9.072 uM
  remaining activity at 9.072 µM: 9.65%
CatL [6]; read-out: Residual activity (Vi/V0), CI-XII 15.120 uM
  remaining activity at 15.12 µM: 5.77%
CatL [6]; read-out: Residual activity (Vi/V0), CI-XII 25.200 uM
  remaining activity at 25.2 µM: 3.2%
CatL [6]; read-out: Residual activity (Vi/V0), CI-XII 42.000 uM
  remaining activity at 42 µM: 1.92%
CatL [6]; read-out: Residual activity (Vi/V0), CI-XII 70.000 uM
  remaining activity at 70 µM: 1.07%
Vero cells
  CC50: > 50000 nM
CatL [7]
  pIC50: 8.80
SARS-CoV-2 Mpro; 2:1 compound to protein
  2:1, Tm average (Mpro): 66.7 °C
SARS-CoV-2 Mpro; pH 7.5
  ΔTm (for Mpro), 2:1 compound to protein mixing ratio: 11,7 ± 1,7 °C and 11.7 °C

## CC(C)C[C@@H](C=O)NC(=O)[C@H](CC(C)C)NC(=O)[C@H](CC(C)C)NC(=O)OCc1ccccc1 [MG-132, Z-Leu-Leu-Leu-aldehyde] (Cbz-Leu-Leu-Leu-aldehyde)
CatL [1]
  2:1, Tm average (CatL): 79.7 °C
  20:1, Tm average (CatL): 81.7 °C
  ΔTm [K] for CatL, 2:1 ratio: 16.6 ± 0.1 K
CatL [1]; pH 5
  ΔTm (for CatL), 2:1 compound to protein mixing ratio: 16,6 ± 0,1 °C and 16.6 °C
  ΔTm (for CatL), 20:1 compound to protein mixing ratio: 18,6 ± 0,1 °C and 18.6 °C
Vero E6 cells
  cell toxicity: notably high cell toxicity

## CCc1ccccc1NC(=O)CSC(=O)NNC(=O)[C@H](Cc1c[nH]c2ccccc12)NC(=O)OC(C)(C)C [TC-I, tert-Butyl N-[(2S)-1-[2-[2-(2-ethylanilino)-2-oxoethyl]sulfanylcarbonylhydrazinyl]-3-(1H-indol-3-yl)-1-oxopropan-2-yl]carbamate]
CatL [1]; 5 µM CatL, pH 5.0, 2% DMSO, 2:1
  ΔTm (for CatL), 2:1 compound to protein mixing ratio: 18,4 ± 0,1 °C and 18.4 °C
CatL [1]; 5 µM CatL, pH 5.0, 2% DMSO, 20:1
  ΔTm (for CatL), 20:1 compound to protein mixing ratio: 18,8 ± 0,0 °C and 18.8 °C
CatL [1]; 2:1 compound to protein
  2:1, Tm average (CatL): 81.5 °C
CatL [1]; 20:1 compound to protein
  20:1, Tm average (CatL): 81.9 °C
CatL [1]; Table S1, 2:1 ratio
  ΔTm [K] for CatL, 2:1 ratio: 18.4 ± 0.1 K
[2]
  Solvent (max. solubility): 50 mg/mL
CatL [6]; read-out: Ki
  pKi: 7.15
CatL [6]; TC-I 0.665 nM
  Residual activity (Vi/V0): 0.9864 and 1.185
CatL [6]; TC-I 0.665 nM, read-out: Residual activity (Vi/V0)
  remaining activity at 0.000665 µM: 100%
CatL [6]; TC-I 1.109 nM
  Residual activity (Vi/V0): 0.9905 and 1.057
CatL [6]; TC-I 1.109 nM, read-out: Residual activity (Vi/V0)
  remaining activity at 0.001109 µM: 98.8%
CatL [6]; TC-I 1.849 nM
  Residual activity (Vi/V0): 0.9855 and 1.105
CatL [6]; TC-I 1.849 nM, read-out: Residual activity (Vi/V0)
  remaining activity at 0.001849 µM: 103%
CatL [6]; TC-I 3.082 nM
  Residual activity (Vi/V0): 1.069 and 1.158
CatL [6]; TC-I 3.082 nM, read-out: Residual activity (Vi/V0)
  remaining activity at 0.003082 µM: 111%
CatL [6]; TC-I 5.140 nM
  Residual activity (Vi/V0): 1.026 and 1.097
CatL [6]; TC-I 5.140 nM, read-out: Residual activity (Vi/V0)
  remaining activity at 0.00514 µM: 104%
CatL [6]; TC-I 8.568 nM
  Residual activity (Vi/V0): 1.0471 and 1.09
CatL [6]; TC-I 8.568 nM, read-out: Residual activity (Vi/V0)
  remaining activity at 0.008568 µM: 105%
CatL [6]; TC-I 14.274 nM
  Residual activity (Vi/V0): 0.9298 and 0.9778
CatL [6]; TC-I 14.274 nM, read-out: Residual activity (Vi/V0)
  remaining activity at 0.014274 µM: 100%
CatL [6]; TC-I 23.798 nM
  Residual activity (Vi/V0): 0.9534 and 0.9214
CatL [6]; TC-I 23.798 nM, read-out: Residual activity (Vi/V0)
  remaining activity at 0.023798 µM: 93.3%
CatL [6]; TC-I 39.658 nM
  Residual activity (Vi/V0): 0.9235 and 0.9214
CatL [6]; TC-I 39.658 nM, read-out: Residual activity (Vi/V0)
  remaining activity at 0.039658 µM: 74.6%
CatL [6]; TC-I 66.096 nM
  Residual activity (Vi/V0): 0.583 and 0.7717 and 0.8256
CatL [6]; TC-I 110.160 nM
  Residual activity (Vi/V0): 0.683 and 0.704
CatL [6]; TC-I 110.160 nM, read-out: Residual activity (Vi/V0)
  remaining activity at 0.11016 µM: 51.2%
CatL [6]; TC-I 183.600 nM
  Residual activity (Vi/V0): 0.3014 and 0.3466 and 0.5578
CatL [7]
  pIC50: 8.16

Reference: PMC11089505, “Structural Elucidation and Antiviral Activity of Covalent Cathepsin L Inhibitors” (Journal of Medicinal Chemistry, 2024)
